# Source: patent US11654199B2 (BOLT BIOTHERAPEUTICS, INC., priority 2019, dated 2023)
# Key:
# [1] = target: T1, human TLR8 (Homo sapiens, UniProt Q9NR97); test: HEK293 NFKB reporter assay, human TLR8; type: cell-based; conditions: HEK293 NFKB reporter cells expressing human TLR8; read-out: HEK293 hTLR8 EC50
# T1 construct: host or cells: HEK293 reporter cells
# T1 sequence (Q9NR97 27-1041): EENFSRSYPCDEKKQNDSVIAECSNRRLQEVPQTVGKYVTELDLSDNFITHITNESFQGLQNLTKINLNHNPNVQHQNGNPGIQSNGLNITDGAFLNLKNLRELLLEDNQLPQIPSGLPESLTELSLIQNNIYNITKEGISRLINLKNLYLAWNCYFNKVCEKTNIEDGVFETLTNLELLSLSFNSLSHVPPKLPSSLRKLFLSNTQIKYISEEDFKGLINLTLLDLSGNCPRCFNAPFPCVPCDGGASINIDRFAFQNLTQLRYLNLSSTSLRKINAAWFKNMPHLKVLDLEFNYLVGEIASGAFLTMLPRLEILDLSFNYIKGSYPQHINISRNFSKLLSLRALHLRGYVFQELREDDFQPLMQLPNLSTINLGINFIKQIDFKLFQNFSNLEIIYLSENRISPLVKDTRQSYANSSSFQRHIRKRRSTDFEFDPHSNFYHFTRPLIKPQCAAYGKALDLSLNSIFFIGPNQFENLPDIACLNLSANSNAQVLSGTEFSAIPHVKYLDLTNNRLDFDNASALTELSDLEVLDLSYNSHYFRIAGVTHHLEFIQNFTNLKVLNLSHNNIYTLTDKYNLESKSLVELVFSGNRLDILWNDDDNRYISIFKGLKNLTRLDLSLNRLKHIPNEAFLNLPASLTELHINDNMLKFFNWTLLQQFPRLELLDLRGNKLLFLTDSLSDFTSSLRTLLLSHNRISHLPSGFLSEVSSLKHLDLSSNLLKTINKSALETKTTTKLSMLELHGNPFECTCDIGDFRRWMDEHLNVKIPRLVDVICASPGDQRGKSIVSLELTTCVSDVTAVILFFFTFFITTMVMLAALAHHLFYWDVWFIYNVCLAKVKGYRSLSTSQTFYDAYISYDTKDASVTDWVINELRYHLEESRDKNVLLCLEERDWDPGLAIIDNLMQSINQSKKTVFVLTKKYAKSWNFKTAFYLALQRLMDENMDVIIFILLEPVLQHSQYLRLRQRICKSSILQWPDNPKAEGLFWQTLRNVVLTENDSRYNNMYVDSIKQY
# Method in brief: (§1)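 HEK293 NF-κB reporter cells expressing human TLR7 or TLR8 were seeded at 4×10^4 cells/well in HEK detection medium containing the stimulatory molecules. Reporter activity was read by absorbance at 620-655 nm.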
# [2] = target: T2, human TLR7 (Homo sapiens, UniProt Q9NYK1); test: HEK293 NFKB reporter assay, human TLR7; type: cell-based; conditions: HEK293 NFKB reporter cells expressing human TLR7; read-out: HEK293 hTLR7 EC50
# T2 construct: host or cells: HEK293 reporter cells
# T2 sequence (Q9NYK1 27-1049): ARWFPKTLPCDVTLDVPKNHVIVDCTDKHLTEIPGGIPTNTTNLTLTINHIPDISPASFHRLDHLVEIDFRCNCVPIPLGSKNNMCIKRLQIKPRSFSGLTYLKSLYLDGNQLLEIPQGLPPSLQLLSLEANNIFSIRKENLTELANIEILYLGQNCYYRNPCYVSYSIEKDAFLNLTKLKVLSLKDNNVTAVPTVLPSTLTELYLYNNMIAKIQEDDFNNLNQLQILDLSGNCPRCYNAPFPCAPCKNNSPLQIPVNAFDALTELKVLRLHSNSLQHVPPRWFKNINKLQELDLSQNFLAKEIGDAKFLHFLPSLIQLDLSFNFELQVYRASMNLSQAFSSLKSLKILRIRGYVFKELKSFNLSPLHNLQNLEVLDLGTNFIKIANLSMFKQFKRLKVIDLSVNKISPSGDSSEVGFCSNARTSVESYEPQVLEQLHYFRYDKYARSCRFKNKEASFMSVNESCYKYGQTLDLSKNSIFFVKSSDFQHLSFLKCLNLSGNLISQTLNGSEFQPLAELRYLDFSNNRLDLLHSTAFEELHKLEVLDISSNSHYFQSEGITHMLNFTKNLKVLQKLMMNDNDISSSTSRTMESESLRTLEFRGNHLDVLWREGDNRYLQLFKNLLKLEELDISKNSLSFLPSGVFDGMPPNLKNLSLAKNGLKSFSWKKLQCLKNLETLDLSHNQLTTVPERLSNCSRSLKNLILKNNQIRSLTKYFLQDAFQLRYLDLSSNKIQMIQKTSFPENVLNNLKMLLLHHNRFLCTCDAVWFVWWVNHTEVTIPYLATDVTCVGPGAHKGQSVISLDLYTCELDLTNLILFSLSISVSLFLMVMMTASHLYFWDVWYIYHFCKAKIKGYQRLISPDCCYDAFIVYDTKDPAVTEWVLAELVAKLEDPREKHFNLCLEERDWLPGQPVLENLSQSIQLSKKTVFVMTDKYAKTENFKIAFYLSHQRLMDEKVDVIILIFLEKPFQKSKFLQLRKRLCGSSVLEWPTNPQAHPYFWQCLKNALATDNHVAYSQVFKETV
# Method in brief: as §1
EC50 [1],EC50 [2],SMILES
> 9000 nM,> 9000 nM,CCCN(CC12CC(CN)(C1)C2)C(=O)C1=Cc2sccc2N=C(N)C1 [TAZ-41]
146 nM,2460 nM,CCCN(OCC)C(=O)C1=Cc2sc(CCCN3CCNCC3)cc2N=C(N)C1 [TAZ-244]
3130 nM,5290 nM,CCCN(CCCNC(=O)OC1CCC1)C(=O)C1=Cc2sc(CN)cc2N=C(N)C1 [TAZ-171]
3240 nM,3760 nM,CCCN(OCC)C(=O)C1=Cc2sc(CN3CC[C@@H]4[C@H](C3)CN4C(=O)OC(C)(C)C)cc2N=C(N)C1 [TAZ-228]
> 9000 nM,> 9000 nM,CCCN(Cc1ccc(CCNC(=O)OC(C)(C)C)cc1)C(=O)C1=Cc2sccc2N=C(N)C1 [TAZ-59]
1530 nM,589 nM,"CCCN(CCCNC(=O)OC(C)(C)C)C(=O)C1=Cc2sccc2N=C(N)C1 [TAZ-8, tert-butyl N-[3-[(5-amino-6H-thieno[3,2-b]azepine-7-carbonyl)-propyl-amino]propyl]carbamate]"
1520 nM,3360 nM,CCCN(OCC)C(=O)C1=Cc2sc(C#CC3CNC3)cc2N=C(N)C1 [TAZ-193]
384 nM,793 nM,CCCN(CCC)C(=O)C1=Cc2sc(CCCCCN(C)C)cc2N=C(N)C1 [TAZ-102]
178 nM,8320 nM,CCCN(Cc1cnc(CN)cn1)C(=O)C1=Cc2sccc2N=C(N)C1 [TAZ-62]
